Results: publication PMC5656517 (European journal of pharmaceutical sciences : official …, 2017)
Converted amounts (≈) assume the structure as drawn.

How the values were obtained:
CYP2C9 = CYP2C9 (Homo sapiens, UniProt P11712); test: Cocktail assay IC50 determination in human liver microsomes
CYP3A4 [1] = target: T1, CYP3A4 (Homo sapiens, UniProt P08684); test: Single point time-dependent inhibition screening assay in human liver microsomes
CYP2E1 = CYP2E1 (Homo sapiens, UniProt P05181); test: Cocktail assay IC50 determination in human liver microsomes; conditions: substrate chloroxazone
Chain of CYP2E1 (P05181 whole entry): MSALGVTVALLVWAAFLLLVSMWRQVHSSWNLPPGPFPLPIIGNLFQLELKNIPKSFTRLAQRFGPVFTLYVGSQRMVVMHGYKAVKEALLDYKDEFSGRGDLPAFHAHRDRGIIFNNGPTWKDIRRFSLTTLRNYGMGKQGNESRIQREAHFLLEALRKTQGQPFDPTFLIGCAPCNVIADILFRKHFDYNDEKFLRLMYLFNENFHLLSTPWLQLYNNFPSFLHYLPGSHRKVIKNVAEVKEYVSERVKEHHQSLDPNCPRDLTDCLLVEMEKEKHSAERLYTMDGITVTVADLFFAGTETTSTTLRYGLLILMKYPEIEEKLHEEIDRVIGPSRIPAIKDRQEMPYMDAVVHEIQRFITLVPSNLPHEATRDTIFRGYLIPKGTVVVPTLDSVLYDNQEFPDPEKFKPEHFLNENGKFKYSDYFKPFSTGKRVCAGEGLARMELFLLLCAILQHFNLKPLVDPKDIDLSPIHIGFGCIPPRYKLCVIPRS

CYP2C19 = CYP2C19 (Homo sapiens, UniProt P33261); conditions: human liver microsomes, substrate (S)-mephenytoin, mean ± standard deviation
Chain of CYP2C19 (P33261 whole entry): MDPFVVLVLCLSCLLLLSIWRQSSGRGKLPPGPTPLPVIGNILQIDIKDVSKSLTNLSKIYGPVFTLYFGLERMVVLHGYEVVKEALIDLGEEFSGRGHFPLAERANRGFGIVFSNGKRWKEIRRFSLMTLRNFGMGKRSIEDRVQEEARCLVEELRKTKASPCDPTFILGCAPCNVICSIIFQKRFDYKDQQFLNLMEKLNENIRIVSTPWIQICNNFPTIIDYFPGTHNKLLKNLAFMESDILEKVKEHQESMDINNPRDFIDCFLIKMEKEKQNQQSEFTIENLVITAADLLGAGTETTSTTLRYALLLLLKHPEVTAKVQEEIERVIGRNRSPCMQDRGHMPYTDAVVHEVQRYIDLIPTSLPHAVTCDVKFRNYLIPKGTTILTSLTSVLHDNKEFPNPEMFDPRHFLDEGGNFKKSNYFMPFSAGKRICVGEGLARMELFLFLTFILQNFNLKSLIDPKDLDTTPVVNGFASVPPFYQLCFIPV

CYP3A4 [2] = target: T1, CYP3A4; test: Cocktail assay IC50 determination in human liver microsomes; conditions: mean ± standard deviation
CYP2A6 = target: T2, CYP2A6 (Homo sapiens, UniProt P11509); test: as above; conditions: substrate coumarin
T2 sequence (P11509 1-494): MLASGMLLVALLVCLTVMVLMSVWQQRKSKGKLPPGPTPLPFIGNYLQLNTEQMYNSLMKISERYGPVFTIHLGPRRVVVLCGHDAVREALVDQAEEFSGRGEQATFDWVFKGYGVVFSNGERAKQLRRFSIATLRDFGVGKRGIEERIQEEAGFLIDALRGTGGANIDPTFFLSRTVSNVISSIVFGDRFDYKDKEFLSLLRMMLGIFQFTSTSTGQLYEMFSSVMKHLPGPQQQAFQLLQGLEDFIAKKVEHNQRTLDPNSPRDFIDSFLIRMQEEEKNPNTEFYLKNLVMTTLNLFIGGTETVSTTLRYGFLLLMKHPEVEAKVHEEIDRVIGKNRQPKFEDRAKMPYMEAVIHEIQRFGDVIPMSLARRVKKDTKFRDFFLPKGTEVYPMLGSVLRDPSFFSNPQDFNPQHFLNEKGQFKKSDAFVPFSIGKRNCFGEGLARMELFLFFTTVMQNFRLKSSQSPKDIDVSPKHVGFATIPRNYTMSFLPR

CYP2B6 = target: T3, CYP2B6 (Homo sapiens, UniProt P20813); test: as above; conditions: substrate bupropion, mean ± standard deviation
T3 sequence (P20813 1-491): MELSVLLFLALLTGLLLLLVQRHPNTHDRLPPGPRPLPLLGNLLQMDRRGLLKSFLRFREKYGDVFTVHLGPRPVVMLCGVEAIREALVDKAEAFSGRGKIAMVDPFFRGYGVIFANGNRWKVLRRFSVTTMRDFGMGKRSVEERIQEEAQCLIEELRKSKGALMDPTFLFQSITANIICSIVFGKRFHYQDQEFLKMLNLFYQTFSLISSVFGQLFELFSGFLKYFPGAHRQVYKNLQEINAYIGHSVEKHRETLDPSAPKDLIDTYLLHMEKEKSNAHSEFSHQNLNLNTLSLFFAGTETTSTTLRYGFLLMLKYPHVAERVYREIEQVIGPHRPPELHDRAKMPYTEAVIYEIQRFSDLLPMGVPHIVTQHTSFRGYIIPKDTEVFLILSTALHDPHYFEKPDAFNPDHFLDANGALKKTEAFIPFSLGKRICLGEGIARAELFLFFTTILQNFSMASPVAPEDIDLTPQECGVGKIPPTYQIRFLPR

CYP3A4 (midazolam) = CYP3A4 (midazolam) (Homo sapiens, UniProt P08684); test: KI and kinact determination in human liver microsomes; assay type: in vitro ADME
Chain of CYP3A4 (midazolam) (P08684 whole entry): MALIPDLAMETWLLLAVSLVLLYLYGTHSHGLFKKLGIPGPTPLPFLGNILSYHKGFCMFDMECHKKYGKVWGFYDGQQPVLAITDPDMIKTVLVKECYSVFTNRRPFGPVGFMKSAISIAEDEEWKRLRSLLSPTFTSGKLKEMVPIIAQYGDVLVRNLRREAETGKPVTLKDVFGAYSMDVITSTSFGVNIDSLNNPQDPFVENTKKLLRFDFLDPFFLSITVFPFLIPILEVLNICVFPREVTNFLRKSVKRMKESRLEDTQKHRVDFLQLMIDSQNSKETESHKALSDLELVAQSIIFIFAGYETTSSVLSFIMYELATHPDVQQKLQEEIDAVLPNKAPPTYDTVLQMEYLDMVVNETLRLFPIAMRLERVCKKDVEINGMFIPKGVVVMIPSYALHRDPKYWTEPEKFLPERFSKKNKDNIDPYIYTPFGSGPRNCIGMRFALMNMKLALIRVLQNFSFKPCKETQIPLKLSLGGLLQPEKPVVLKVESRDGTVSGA

T1 sequence (P08684 whole entry): as above
Chain of CYP2C9 (P11712 whole entry): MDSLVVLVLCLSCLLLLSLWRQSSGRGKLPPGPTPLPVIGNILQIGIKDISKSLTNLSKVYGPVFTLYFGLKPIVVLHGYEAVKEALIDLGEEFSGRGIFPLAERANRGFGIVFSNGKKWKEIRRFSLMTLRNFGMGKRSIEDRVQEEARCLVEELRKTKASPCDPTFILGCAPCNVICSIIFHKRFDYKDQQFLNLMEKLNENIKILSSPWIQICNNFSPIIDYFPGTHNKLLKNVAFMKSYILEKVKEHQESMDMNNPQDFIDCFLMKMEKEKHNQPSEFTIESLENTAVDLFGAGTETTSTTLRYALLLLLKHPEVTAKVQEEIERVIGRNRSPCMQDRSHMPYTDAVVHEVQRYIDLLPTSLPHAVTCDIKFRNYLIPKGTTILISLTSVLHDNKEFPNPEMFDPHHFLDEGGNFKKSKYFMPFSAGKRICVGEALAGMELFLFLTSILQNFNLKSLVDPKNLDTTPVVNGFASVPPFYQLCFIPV

C=CC(C)(C)c1cc(/C=C/C(=O)c2ccc(O)cc2)c(OC)cc1O [Licochalcone A, licochalcone A]
IC50, CYP2C9 (CYP2C9; lower end of the range of IC50 values): high nM levels
IC50, CYP2C9 (CYP2C9; substrate tolbutamide, mean ± standard deviation): 0.78 ± 0.09 µg/mL (≈ 2.3 µM)
time-dependent inhibition of CYP3A4 (midazolam), in words (CYP3A4 [1]): demonstrated time-dependent inhibition
IC50, CYP2E1 (CYP2E1): >25 µg/mL
IC50, CYP2C19 (CYP2C19): 3.60 ± 0.79 µg/mL (≈ 10.6 µM)
IC50, CYP3A4 (midazolam) (CYP3A4 [2]; substrate midazolam): 16.05 ± 1.91 µg/mL (≈ 47.4 µM)
IC50, CYP3A4 (testosterone) (CYP3A4 [2]; substrate testosterone): 6.78 ± 1.27 µg/mL (≈ 20 µM)
IC50, CYP2A6 (CYP2A6): >25 µg/mL
IC50, CYP2B6 (CYP2B6): 17.96 ± 4.58 µg/mL (≈ 53.1 µM)
Efficiency of inactivation (CYP3A4 (midazolam); human liver microsomes): 0.0033 µM⁻¹ min⁻¹
kinact for inactivation of CYP3A4 (midazolam) (CYP3A4 (midazolam); human liver microsomes): 0.38 min⁻¹
type of CYP3A4 inhibition, conclusion in words (CYP3A4 (midazolam); human liver microsomes and recombinant CYP3A4): mechanism based inhibitor
KI (inactivation) (CYP3A4 (midazolam); read-out: KI for inactivation of CYP3A4 (midazolam), human liver microsomes): 116 µM
